Assay results published in ChEMBL document CHEMBL1135908, “Synthesis and biological evaluation of cycloalkylidene carboxylic acids as novel effectors of Ras/Raf interaction” (J Med Chem, 2002).

Experiment: Cytotoxicity of compound towards Y190 yeast cells
Type: functional, cell-based
Conditions: Saccharomyces cerevisiae

`CC(C(=O)O)=C1CCCCC1` and `CC(C(=O)O)=C1CCCCCC1` cannot be ordered by EC50: over 300 µM for the first, over 300 µM for the second.

`O=C(O)C=C1CCCCCC1` and `O=C(O)C=C1CCCC1` cannot be ordered by EC50: over 300 µM for the first, over 300 µM for the second.

Going from `CC(C(=O)O)=C1CCC(C)CC1` (stereo not drawn) to `CCC1CCC(=C(C)C(=O)O)CC1` (stereo not drawn), the EC50 falls from over 300 µM to 125 µM. The second is the more potent here.

`O=CC=C1CCCCCC1` and `CC(C(=O)O)=C1CCCC1` cannot be ordered by EC50: over 300 µM for the first, over 300 µM for the second.

`CCCC1CCC(=C(C)C(=O)O)CC1` (stereo not drawn) and `CC(C(=O)O)=C1CCC(C(C)(C)C)CC1` (stereo not drawn) are within 1.5-fold of each other in EC50: 74 µM for the first, 81 µM for the second.

Going from `C/C(C(=O)O)=C1\CCCC(C)C1` (stereo not drawn) to `CC(C(=O)O)=C1CCC(c2ccccc2)CC1` (stereo not drawn), the EC50 falls from over 300 µM to 143 µM.

`COc1ccc(C2CCC(=C(C)C(=O)O)CC2)cc1` (stereo not drawn) showed an EC50 of 130 µM.
